Common to all, as to experiment: Affinity-purification and mass spectrometry (AP-MS) chemical proteomics, all proteins;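 on Difference: 200 µM free competitor with 20 µM biotin probe overnight in lysate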
Holding throughout (type): binding

In experiment [1] the target is T1, proteins displaced from immobilized biotin-Cmpd 1 pulldowns (U2OS cell lysate) (Homo sapiens, UniProt O43660).
T1 construct: endogenous in cells; host or cells: U2OS
The following applies: GN=PLRG1 (O43660).

Experiment [2] concerns the target T2, proteins displaced from immobilized biotin-Cmpd 1 pulldowns (U2OS cell lysate) (Homo sapiens, UniProt Q13200).
T2 construct: endogenous in cells; host or cells: U2OS
As to conditions: GN=PSMD2 (Q13200).

In experiment [3] the target is T3, proteins displaced from immobilized biotin-Cmpd 1 pulldowns (U2OS cell lysate) (Homo sapiens, UniProt P05089).
T3 construct: endogenous in cells; host or cells: U2OS
T3 sequence (P05089 whole entry): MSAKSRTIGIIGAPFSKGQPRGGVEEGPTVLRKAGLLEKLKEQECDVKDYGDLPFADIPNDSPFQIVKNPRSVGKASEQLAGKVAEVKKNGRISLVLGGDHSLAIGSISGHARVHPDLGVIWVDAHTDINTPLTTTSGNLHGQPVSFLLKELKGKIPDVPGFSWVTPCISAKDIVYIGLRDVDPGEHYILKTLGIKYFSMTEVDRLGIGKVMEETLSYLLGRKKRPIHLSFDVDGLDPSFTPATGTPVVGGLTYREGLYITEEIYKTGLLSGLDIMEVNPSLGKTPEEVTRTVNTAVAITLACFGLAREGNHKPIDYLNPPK
The following applies: GN=ARG1 (P05089).

Experiment [4] deals with T4, proteins displaced from immobilized biotin-Cmpd 1 pulldowns (U2OS cell lysate) (Homo sapiens, UniProt P27797).
T4 construct: endogenous in cells; host or cells: U2OS
T4 sequence (P27797 18-417): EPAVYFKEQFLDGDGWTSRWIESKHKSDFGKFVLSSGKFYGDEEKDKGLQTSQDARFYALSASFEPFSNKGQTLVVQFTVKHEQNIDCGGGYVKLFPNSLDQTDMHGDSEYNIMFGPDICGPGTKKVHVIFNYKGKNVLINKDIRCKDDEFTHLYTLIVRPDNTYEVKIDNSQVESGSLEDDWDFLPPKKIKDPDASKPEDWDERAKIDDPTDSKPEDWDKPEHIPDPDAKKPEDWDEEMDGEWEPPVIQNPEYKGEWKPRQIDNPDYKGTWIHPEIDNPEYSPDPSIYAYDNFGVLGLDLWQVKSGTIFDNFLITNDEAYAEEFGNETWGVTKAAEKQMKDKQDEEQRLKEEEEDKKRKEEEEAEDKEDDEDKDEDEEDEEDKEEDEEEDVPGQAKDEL
As to conditions: GN=CALR (P27797).

Experiment [5] deals with T5, proteins displaced from immobilized biotin-Cmpd 1 pulldowns (U2OS cell lysate) (Homo sapiens, UniProt P61313).
T5 construct: endogenous in cells; host or cells: U2OS
As to conditions: GN=RPL15 (P61313).

Experiment [6] concerns the target T6, proteins displaced from immobilized biotin-Cmpd 1 pulldowns (U2OS cell lysate) (Homo sapiens, UniProt P30048).
T6 construct: endogenous in cells; host or cells: U2OS
The following applies: GN=PRDX3 (P30048).

The target of experiment [7] is T7, proteins displaced from immobilized biotin-Cmpd 1 pulldowns (U2OS cell lysate) (Homo sapiens, UniProt Q9UNF1).
T7 construct: endogenous in cells; host or cells: U2OS
T7 sequence (Q9UNF1 whole entry): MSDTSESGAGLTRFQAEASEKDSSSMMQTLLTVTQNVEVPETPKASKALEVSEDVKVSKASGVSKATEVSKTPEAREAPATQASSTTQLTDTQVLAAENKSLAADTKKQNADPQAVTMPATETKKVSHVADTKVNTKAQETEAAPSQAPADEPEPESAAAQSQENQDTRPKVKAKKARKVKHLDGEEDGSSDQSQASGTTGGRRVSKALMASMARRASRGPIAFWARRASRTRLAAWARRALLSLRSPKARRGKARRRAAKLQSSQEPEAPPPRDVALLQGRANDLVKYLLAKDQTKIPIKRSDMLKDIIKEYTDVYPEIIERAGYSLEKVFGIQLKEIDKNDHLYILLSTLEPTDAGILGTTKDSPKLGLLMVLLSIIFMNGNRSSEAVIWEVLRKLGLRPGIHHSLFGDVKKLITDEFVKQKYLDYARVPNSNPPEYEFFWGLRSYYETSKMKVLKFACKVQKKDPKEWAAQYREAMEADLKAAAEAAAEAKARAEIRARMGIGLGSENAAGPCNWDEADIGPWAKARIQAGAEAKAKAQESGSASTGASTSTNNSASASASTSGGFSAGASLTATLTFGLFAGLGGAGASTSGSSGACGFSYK
As to conditions: GN=MAGED2 (Q9UNF1).

In experiment [8] the target is T8, proteins displaced from immobilized biotin-Cmpd 1 pulldowns (U2OS cell lysate) (Homo sapiens, UniProt P52948).
T8 construct: endogenous in cells; host or cells: U2OS
T8 sequence (P52948 whole entry): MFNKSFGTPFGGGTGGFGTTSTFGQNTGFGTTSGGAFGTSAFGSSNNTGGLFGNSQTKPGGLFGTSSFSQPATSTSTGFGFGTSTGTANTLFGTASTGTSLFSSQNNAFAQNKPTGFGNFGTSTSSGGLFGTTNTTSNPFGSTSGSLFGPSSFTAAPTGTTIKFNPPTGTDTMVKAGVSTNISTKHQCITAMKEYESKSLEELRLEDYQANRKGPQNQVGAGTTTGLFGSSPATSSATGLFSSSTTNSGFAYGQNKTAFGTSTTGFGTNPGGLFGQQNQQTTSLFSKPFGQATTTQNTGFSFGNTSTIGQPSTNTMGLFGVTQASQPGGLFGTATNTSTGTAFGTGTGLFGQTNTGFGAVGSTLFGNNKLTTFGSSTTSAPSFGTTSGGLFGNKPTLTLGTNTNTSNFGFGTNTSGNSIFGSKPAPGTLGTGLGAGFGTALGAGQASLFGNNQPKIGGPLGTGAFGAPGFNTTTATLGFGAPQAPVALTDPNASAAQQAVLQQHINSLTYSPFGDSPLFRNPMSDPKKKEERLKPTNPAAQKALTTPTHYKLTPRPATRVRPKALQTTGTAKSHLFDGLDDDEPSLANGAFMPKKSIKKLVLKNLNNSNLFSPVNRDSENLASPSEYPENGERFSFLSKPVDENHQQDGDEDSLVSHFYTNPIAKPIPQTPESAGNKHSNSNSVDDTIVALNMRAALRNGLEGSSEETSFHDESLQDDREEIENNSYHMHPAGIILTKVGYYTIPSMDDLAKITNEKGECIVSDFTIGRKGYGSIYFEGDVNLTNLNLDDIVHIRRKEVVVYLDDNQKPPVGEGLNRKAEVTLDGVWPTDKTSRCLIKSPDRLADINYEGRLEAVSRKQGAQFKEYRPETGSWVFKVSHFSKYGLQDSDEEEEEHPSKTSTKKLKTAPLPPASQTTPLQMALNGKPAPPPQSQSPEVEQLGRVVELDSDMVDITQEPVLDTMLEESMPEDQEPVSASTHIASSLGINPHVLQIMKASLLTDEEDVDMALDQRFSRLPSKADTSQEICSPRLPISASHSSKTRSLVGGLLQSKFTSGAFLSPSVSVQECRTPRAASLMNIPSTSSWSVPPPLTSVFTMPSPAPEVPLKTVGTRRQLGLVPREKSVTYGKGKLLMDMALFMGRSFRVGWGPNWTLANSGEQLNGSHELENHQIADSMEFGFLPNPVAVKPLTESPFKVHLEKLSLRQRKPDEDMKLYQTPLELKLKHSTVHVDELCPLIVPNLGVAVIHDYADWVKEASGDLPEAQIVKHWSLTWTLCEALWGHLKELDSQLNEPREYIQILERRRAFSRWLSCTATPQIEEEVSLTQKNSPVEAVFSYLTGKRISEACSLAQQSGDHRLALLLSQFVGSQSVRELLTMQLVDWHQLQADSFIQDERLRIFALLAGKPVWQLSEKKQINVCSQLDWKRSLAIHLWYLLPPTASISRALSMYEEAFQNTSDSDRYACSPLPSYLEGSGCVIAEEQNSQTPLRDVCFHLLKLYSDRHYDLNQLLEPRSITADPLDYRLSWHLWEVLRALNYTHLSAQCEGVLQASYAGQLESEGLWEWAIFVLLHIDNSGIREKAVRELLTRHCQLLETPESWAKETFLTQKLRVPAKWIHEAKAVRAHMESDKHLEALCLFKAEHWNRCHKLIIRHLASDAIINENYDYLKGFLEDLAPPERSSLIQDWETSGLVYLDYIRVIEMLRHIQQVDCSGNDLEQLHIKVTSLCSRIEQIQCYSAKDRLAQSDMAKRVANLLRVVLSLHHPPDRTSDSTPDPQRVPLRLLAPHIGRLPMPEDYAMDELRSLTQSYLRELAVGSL
The following applies: GN=NUP98 (P52948).

For experiment [9], the target named is T9, proteins displaced from immobilized biotin-Cmpd 1 pulldowns (U2OS cell lysate) (Homo sapiens, UniProt Q13601).
T9 construct: endogenous in cells; host or cells: U2OS
T9 sequence (Q13601 whole entry): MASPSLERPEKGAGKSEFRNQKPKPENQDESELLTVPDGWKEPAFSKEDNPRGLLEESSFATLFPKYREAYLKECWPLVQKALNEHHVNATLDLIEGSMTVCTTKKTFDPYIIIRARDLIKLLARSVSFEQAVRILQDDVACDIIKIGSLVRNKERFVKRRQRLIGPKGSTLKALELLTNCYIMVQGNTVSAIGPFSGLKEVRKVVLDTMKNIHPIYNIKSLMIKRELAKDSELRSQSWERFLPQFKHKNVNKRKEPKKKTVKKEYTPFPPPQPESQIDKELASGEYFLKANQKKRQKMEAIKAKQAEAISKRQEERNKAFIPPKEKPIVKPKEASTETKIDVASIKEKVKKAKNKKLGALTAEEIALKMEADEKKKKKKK
As to conditions: GN=KRR1 (Q13601).

Experiment [10] concerns the target T10, proteins displaced from immobilized biotin-Cmpd 1 pulldowns (U2OS cell lysate) (Homo sapiens, UniProt Q9Y6M1).
T10 construct: endogenous in cells; host or cells: U2OS
As to conditions: GN=IGF2BP2 (Q9Y6M1).

One compound from article PMC9481570, “A small molecule antagonist of SMN disrupts the interaction between SMN and RNAP II” (Nature Communications, 2022) can be followed below.

SMILES strings stand for the structures. Values joined by “and” are separate entries in the source; they are usually repeats but may differ in a detail not shown here. Identical values can stand only once.

T10 sequence (Q9Y6M1 whole entry): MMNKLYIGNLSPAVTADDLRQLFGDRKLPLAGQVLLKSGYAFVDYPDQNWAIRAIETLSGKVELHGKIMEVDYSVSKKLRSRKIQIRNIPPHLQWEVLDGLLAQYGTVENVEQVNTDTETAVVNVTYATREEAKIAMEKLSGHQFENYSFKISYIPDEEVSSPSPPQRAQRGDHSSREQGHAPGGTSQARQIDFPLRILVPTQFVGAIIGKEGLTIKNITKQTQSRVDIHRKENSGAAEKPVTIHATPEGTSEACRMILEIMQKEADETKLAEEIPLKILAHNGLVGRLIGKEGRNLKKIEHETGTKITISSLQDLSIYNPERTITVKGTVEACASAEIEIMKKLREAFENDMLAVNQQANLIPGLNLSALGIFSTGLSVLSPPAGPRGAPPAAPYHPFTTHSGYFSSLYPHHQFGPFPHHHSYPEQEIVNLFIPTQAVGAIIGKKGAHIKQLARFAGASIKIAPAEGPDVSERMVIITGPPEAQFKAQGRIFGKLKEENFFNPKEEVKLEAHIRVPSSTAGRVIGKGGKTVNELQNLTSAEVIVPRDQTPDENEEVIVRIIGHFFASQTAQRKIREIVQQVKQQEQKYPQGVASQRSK
T6 sequence (P30048 62-256): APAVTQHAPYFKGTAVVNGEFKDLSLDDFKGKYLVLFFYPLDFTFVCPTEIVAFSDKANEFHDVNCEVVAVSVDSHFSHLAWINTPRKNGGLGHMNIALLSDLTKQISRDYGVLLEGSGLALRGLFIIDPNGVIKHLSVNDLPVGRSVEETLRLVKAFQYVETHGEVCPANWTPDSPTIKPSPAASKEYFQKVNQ
T1 sequence (O43660 whole entry): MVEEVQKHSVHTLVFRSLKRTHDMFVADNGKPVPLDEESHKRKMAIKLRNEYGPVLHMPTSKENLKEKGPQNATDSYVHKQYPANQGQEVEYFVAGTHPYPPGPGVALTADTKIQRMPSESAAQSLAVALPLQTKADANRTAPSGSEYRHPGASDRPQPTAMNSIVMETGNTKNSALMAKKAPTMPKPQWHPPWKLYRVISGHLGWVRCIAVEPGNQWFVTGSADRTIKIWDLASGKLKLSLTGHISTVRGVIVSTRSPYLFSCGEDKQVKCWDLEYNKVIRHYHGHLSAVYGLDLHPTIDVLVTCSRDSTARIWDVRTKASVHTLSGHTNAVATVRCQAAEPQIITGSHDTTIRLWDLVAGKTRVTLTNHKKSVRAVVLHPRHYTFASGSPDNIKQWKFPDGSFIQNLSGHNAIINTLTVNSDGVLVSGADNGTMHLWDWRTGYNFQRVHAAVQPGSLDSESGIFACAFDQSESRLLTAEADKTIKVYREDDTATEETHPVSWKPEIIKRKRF

For `Cn1c2c(c(=N)c3c1CCC3)CCC2` [Compound 1, 4-methyl-2,3,4,5,6,7-hexahydrodicyclopenta[b,e]pyridin-8(1H)-imine], the Difference is 2.0669 in [1] (Cmpd minus DMSO, -LOG(P-value) 0.874244); -0.9512 in experiment [2] (Cmpd minus DMSO, -LOG(P-value) 1.86828); -1.277 in [3] (Cmpd minus DMSO, -LOG(P-value) 0.796604); 3.089 in experiment [4] (Cmpd minus DMSO, -LOG(P-value) 1.31392); -0.7361 in experiment [5] (Cmpd minus DMSO, -LOG(P-value) 0.777225); -0.7441 in experiment [6] (Cmpd minus DMSO, -LOG(P-value) 1.19354). Besides, the Difference in experiment [7] (Cmpd minus DMSO, -LOG(P-value) 0.822167) amounted to 0.7403; in experiment [8] (Cmpd minus DMSO, -LOG(P-value) 0.703266), 1.019; in experiment [9] (Cmpd minus DMSO, -LOG(P-value) 0.80089), 1.298; in [10] (Cmpd minus DMSO, -LOG(P-value) 0.946138) it was 1.759. Moreover, the “iBAQ Cmpd” value was 19.5697 and 18.4715 and 18.0629 in [1] (replicates 1-3); 17.2697 and 17.2993 and 16.9257 in experiment [2] (replicates 1-3); 21.3858 and 21.3863 and 20.4096 in experiment [3] (replicates 1-3); 19.5486 and 19.2952 and 16.8093 in experiment [4] (replicates 1-3); 21.3956 and 22.1107 and 21.8582 in experiment [5] (replicates 1-3); 16.0313 and 15.2476 and 15.6479 in experiment [6] (replicates 1-3). The “iBAQ Cmpd” value in [7] (replicates 1-3) was 20.5058 and 20.3034 and 20.4789; in [8] (replicates 1-3), 16.2576 and 15.2783 and 15.0872; in [9] (replicates 1-3), 17.9419 and 17.334 and 17.0379; in experiment [10] (replicates 1-3) it was 20.2891 and 19.4609 and 19.6711.
